In patent publication US8545898B2, “Broad-spectrum antiviral composition with excellent preservation stabilty” (Taiko Pharmaceutical Co., Ltd., priority 2007, dated 2013):
Read-outs that look alike come from different tables or passages of the source.

Columns and labels:
[1] = target: human hepatitis B surface antigen (HBsAg) (Hepatitis B virus genotype C subtype adr, UniProt P12934); experiment: Anti-HBsAg activity, HBsAg titer by chemiluminescent immunoassay; assay type: biochemical; conditions: 100 ppm; for HBsAg antigen titer: untreated 54 IU/ml
Chain of human hepatitis B surface antigen (HBsAg) (P12934 whole entry): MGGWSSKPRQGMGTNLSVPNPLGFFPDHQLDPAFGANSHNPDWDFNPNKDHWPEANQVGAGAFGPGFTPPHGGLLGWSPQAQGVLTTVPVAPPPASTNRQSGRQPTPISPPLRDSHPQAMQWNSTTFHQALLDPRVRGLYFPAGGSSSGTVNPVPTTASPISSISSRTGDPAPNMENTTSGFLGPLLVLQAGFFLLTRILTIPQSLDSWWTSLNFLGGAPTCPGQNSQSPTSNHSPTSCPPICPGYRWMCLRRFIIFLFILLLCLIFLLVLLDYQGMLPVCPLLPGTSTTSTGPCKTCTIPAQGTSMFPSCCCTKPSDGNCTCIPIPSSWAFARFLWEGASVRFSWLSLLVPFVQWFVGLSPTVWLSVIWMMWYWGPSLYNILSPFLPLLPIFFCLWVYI
Procedure: For the antiviral testing, various concentrations of the chlorine dioxide solutions (agent A, agent B) were prepared and left in respective containers made of synthetic resin for 8 months. Specifically, each of the chlorine dioxide solutions obtained in each of Examples 1 and 2 was placed in a container having an opening with a diameter of 2 cm, and after closing a screw-cap, the container was left at room temperature for 8 months. Subsequently, an antiviral activity effect of the solution was examined. As controls, sodium hypochlorite (agent C), stabilized chlorine dioxide (sodium chlorite) (agent D), and povidone-iodine (agent E) were used. The agents C to E were not preserved for 8 months, and subjected to the test immediately after the purchase.
Each agent was added to human hepatitis B surface antigen (HBsAg), and after 1, 2, 3 or 4 days of sensitization, the agent was neutralized with a sodium thiosulfate solution, and HBsAg titer was measured using a chemiluminescent immunoassay “Architect-HBsAg (manufactured by Dainabot Co., Ltd.)”. An anti-HBsAg activity of the agent was evaluated.

[2] = tested on: canine parvovirus <CPV(Y-1)>; experiment: Antiviral testing (canine parvovirus), TCID50 by swine hemagglutination test, CRFK cells; assay type: cell-based

Compound	anti-HBsAg activity ([1]; 1 to 4 days)	HBsAg antigen titer ([1]; sensitized time 1 day)	HBsAg antigen titer ([1]; sensitized time 2 days)	HBsAg antigen titer ([1]; sensitized time 3 days)	HBsAg antigen titer ([1]; sensitized time 4 days)	CPV infectivity titer remaining ([2]; 10 ppm, after 180 seconds)	decrease in CPV infectivity titer ([2]; 100 ppm, after 120 seconds)	decrease in CPV infectivity titer [2]
OCl [sodium hypochlorite, Sodium hypochlorite]	absence of an anti-HBsAg activity	50 IU/ml	51 IU/ml	51 IU/ml	49 IU/ml	100 TCID50	≥ 99.99%	
sodium chlorite [stabilized chlorine dioxide solution]								no decrease in the infectivity titer was observed
